Measurements as given in patent publication US20150037397A1, “PHARMACEUTICAL COMPOSITIONS OF PYRIDINIUM AND QUINOLINIUM DERIVATIVES” (TRASLATIONAL CANCER DRUGS PHARMA, S.L., priority 2010, published 2015).

Experiments:
[1] = Solubility in simulated biological media and dilution media; type: physicochemical; details: for Solubility of TCD717: 24 h stirring, room temperature
[2] = Chemical stability of TCD717 in solution under stress conditions; type: physicochemical
Description: The chemical stability of TCD717 (compound No. 6, Q=Br) in solution (which comprises MeOH/water 3:1 v/v and additional stress elements, as indicated in the Table) under various stress conditions is provided in the following Table.

[3] = type: physicochemical
Method: The solubility of solid TCD717 at room temperature in prototype vehicles suitable for intravenous formulation and the behavior after five-fold dilution with 0.9% NaCl solutions was tested. Formulations were prepared by dissolving the components in water at the indicated concentration.

[4] = pH solubility profiling in Titrisol buffers (HPLC after filtration); type: physicochemical; details: 24 h, room temperature
Method: The pH solubility profile of compound TCD717 (compound No. 6, Q=Br) was assessed at pH 2-8. […] The TCD717 concentration after filtration through a 0.22 μm pore size PVDF filter was determined using HPLC.

[5] = Solubility in saline solutions at different NaCl concentrations; type: physicochemical; details: NaCl 2, 5, 10, 20, 100 and 165 mM (FIG. 2)
Method: To obtain a greater insight on the sensitivity of the solubility for sodium and chloride ions, the solubility of TCD717 was tested in saline solutions at NaCl concentrations of 2, 5, 10, 20, 100 and 165 mM NaCl.

[6] = Solubility testing in lipophilic and amphiphilic vehicles; type: physicochemical
Method: The solubility of TCD717 was determined in selected vehicles. […] The undissolved fraction of TCD717 was separated by filtration through a 0.22 μm pore size PVDF filter, and the filtrate was diluted before analyzing the TCD717 content by HPLC.

CN(c1ccc(Cl)cc1)c1cc[n+](Cc2ccc(-c3ccc(C[n+]4ccc(N(C)c5ccc(Cl)cc5)c5ccccc54)cc3)cc2)c2ccccc12.[Br-].[Br-] [TCD717]
Solubility of TCD717 ([1]; Glucose 5% (w/v)): 260 µg/mL | Solubility of TCD717 ([1]; Human Serum Albumin 2% (w/v)): 275 µg/mL | Solubility of TCD717 ([1]; Saline 0.9% (w/v)): 9 µg/mL | Solubility of TCD717 ([1]; Water): 200 µg/mL | Solubility in aqueous NaCl 0.9% ([1]; aqueous NaCl 0.9%): 9 µg/mL | Solubility in water ([1]; water at 25° C.): 200 µg/mL | Observation (chemical stability) ([2]; MeOH/water 3:1 v/v, 0.1M HCl/1 day): No degradation observed | Observation (chemical stability), degradation ([2]; MeOH/water 3:1 v/v, 0.1M NaOH/1 day): Some degradation (~6%) | Observation (chemical stability) ([2]; MeOH/water 3:1 v/v, 3% H2O2 + 0.1M HCl): Complete degradation | Observation (chemical stability) ([2]; MeOH/water 3:1 v/v, 3% H2O2 + 0.1M NaOH): Complete degradation | Observation (chemical stability) ([2]; MeOH/water 3:1 v/v, 3% H2O2/1 day): No degradation observed | Stability ([2]; combinations of acidic/oxidizing and basic/oxidizing conditions): very unstable | Stability ([2]; under basic conditions): only moderately stable | Solubilization potential of the solubilizing agent for TCD717 [3]: highest solubilization potential | Precipitation after dilution ([3]; HP-β-CD composition, five-fold dilution with 0.9% NaCl solutions): no precipitation | TCD717 concentration (solubility) ([4]; Boron acid/HCl/NaOH 110 mM (Tritrisol), buffer pH 8): 3 µg/mL | TCD717 concentration (solubility) ([4]; Citrate/HCl 30 mM (Tritrisol), buffer pH 2): 45 µg/mL | TCD717 concentration (solubility) ([4]; Citrate/HCl 40 mM (Tritrisol), buffer pH 3): 32 µg/mL | TCD717 concentration (solubility) ([4]; Citrate/HCl 56 mM (Tritrisol), buffer pH 4): 8 µg/mL | TCD717 concentration (solubility) ([4]; Citrate/NaOH 60 mM (Tritrisol), buffer pH 6): 62 µg/mL | TCD717 concentration (solubility) ([4]; Citrate/NaOH 96 mM (Tritrisol), buffer pH 5): 6 µg/mL | TCD717 concentration (solubility) ([4]; Phosphate (K + Na+) 67 mM (Tritrisol), buffer pH 7): 860 µg/mL | TCD717 concentration (solubility) ([4]; Water, suspended at 5 mg/ml): 200 µg/mL | Aqueous solubility as a function of NaCl concentration [5]: decreases at NaCl concentrations above 20 mM | Solubility ([6]; Cremophor EL35, at least 24 h at 45° C.): 0.78 mg/g | Solubility ([6]; Miglyol 812, at least 24 h at 45° C.): 0.002 mg/g | Solubility ([6]; Solutol HS15, at least 24 h at 45° C.): 2.3 mg/g | Affinity for detergents ([6]; Solutol HS 15 and Tween 80): low affinity | Solubility ([6]; Soya oil, at least 24 h at 45° C.): 0.015 mg/g | Solubility ([6]; Tween 80, at least 24 h at 45° C.): 3.1 mg/g | Solubility ([6]; soy oil and Miglyol): very low
